# Laboratory results: US11051515B2, “3-acyl-benzamides and their use as herbicides” (Bayer Aktiengesellschaft, priority 2017, dated 2021)
# Key:
# [1] = test system: PHBPU; assay: Post-emergence action against PHBPU; format: in vivo, Pharbitis purpurea; conditions: post-emergence, dosage 80 g/ha
# Procedure, shortened: (§1)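 Weeds grown in sandy loam in greenhouse, treated at one-leaf stage (2–3 weeks after sowing) with WP or EC formulations sprayed as aqueous suspension/emulsion at 600 to […] water with 0.2% wetting agent. Visual rating after about 3 weeks versus untreated controls, as % herbicidal action (100% = plants dead, 0% = like control).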
# [2] = test system: AVEFA; assay: Pre-emergence action against AVEFA; format: in vivo, Avena fatua; conditions: dosage 320 g/ha, scored visually after 3 weeks vs untreated controls
# Procedure, shortened: (§2)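 Seeds sown in sandy loam in wood-fiber pots and covered with soil. Greenhouse growth; visual damage scored after 3 weeks versus untreated controls (100% = dead, 0% = like control).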
# [3] = test system: STEME; assay: Post-emergence action against STEME; format: in vivo, Stellaria media; conditions: post-emergence, dosage 80 g/ha
# Procedure, shortened: as §1
# [4] = test system: ABUTH; assay: Pre-emergence action against ABUTH; format: in vivo, Abutilon theophrasti; conditions: pre-emergence, dosage 320 g/ha, scored visually after 3 weeks vs untreated controls
# Procedure, shortened: as §2
# [5] = test system: VERPE; assay: Pre-emergence action against VERPE; format: in vivo, Veronica persica; conditions: Dosage 320 g/ha, pre-emergence
# Procedure, shortened: as §2
# [6] = test system: ABUTH; assay: Post-emergence action against ABUTH; format: in vivo, Abutilon theophrasti; conditions: post-emergence, dosage 80 g/ha, visual assessment about 3 weeks after treatment vs untreated controls
# Procedure, shortened: as §1
# [7] = test system: LOLRI; assay: Pre-emergence action against LOLRI; format: in vivo, Lolium rigidum; conditions: dosage 320 g/ha, scored visually after 3 weeks vs untreated controls
# Procedure, shortened: as §2
# [8] = test system: DIGSA; assay: Pre-emergence action against DIGSA; format: in vivo, Digitaria sanguinalis; conditions: dosage 320 g/ha, scored visually after 3 weeks vs untreated controls
# Excerpt: (§3) Seeds of monocotyledonous and dicotyledonous weed plants and crop plants are laid out in sandy loam soil in wood-fiber pots and covered with soil. The compounds of the invention, formulated in the form of wettable powders (WP) or as emulsion concentrates (EC), are then applied to the surface of the covering soil in the form of an aqueous suspension or emulsion at a water application rate equating to […], with addition of 0.2% wetting agent. After the treatment, the pots are placed in a greenhouse and kept under good growth conditions for the trial plants. The damage to the test plants is scored visually after a test period of 3 weeks by comparison with untreated controls (herbicidal activity in percent (%): 100% activity=the plants have died, 0% activity=like control plants).
# [9] = test system: VIOTR; assay: Pre-emergence action against VIOTR; format: in vivo, Viola tricolor; conditions: Dosage 320 g/ha, pre-emergence
# Procedure, shortened: as §2
# [10] = test system: MATIN; assay: Pre-emergence action against MATIN; format: in vivo, Matricaria inodora; conditions: Dosage 320 g/ha, pre-emergence
# Procedure, shortened: as §2
# [11] = test system: AMARE; assay: Pre-emergence action against AMARE; format: in vivo, Amaranthus retroflexus; conditions: pre-emergence, dosage 320 g/ha, scored visually after 3 weeks vs untreated controls
# Procedure, shortened: as §2
# [12] = test system: STEME; assay: Pre-emergence action against STEME; format: in vivo, Stellaria media; conditions: Dosage 320 g/ha, pre-emergence
# Procedure, shortened: as §2
# [13] = test system: ECHCG; assay: Pre-emergence action against ECHCG; format: in vivo, Echinochloa crus-galli; conditions: pre-emergence, dosage 320 g/ha, scored visually after 3 weeks vs untreated controls
# Procedure, shortened: as §2
# [14] = test system: AMARE; assay: Post-emergence action against AMARE; format: in vivo, Amaranthus retroflexus; conditions: post-emergence, dosage 80 g/ha, visual assessment about 3 weeks after treatment vs untreated controls
# Procedure, shortened: as §1
# [15] = test system: SETVI; assay: Pre-emergence action against SETVI; format: in vivo, Setaria viridis; conditions: pre-emergence, dosage 320 g/ha, scored visually after 3 weeks vs untreated controls
# Procedure, shortened: as §2
# [16] = test system: POLCO; assay: Pre-emergence action against POLCO; format: in vivo, Polygonum convolvulus; conditions: Dosage 320 g/ha, pre-emergence
# Procedure, shortened: as §2
# [17] = test system: VERPE; assay: Post-emergence action against VERPE; format: in vivo, Veronica persica; conditions: dosage 80 g/ha
# Procedure, shortened: as §1
# [18] = test system: ALOMY; assay: Pre-emergence action against ALOMY; format: in vivo, Alopecurus myosuroides; conditions: dosage 320 g/ha; pre-emergence; scored visually after 3 weeks vs untreated controls; 100% = plants have died, 0% = like control plants
# Procedure, shortened: as §2
# [19] = test system: ECHCG; assay: Post-emergence action against ECHCG; format: in vivo, Echinochloa crus-galli; conditions: post-emergence, dosage 80 g/ha, visual assessment about 3 weeks after treatment vs untreated controls
# Procedure, shortened: as §1
# [20] = test system: VIOTR; assay: Post-emergence action against VIOTR; format: in vivo, Viola tricolor; conditions: post-emergence, dosage 80 g/ha
# Procedure, shortened: as §1
# [21] = test system: SETVI; assay: Post-emergence action against SETVI; format: in vivo, Setaria viridis; conditions: post-emergence, dosage 80 g/ha, visual assessment about 3 weeks after treatment vs untreated controls
# Procedure, shortened: as §1
# [22] = test system: CYPES; assay: Post-emergence action against CYPES; format: in vivo, Cyperus esculentus; conditions: post-emergence, dosage 80 g/ha, visual assessment about 3 weeks after treatment vs untreated controls
# Procedure, shortened: as §1
# [23] = test system: POLCO; assay: Post-emergence action against POLCO; format: in vivo, Polygonum convolvulus; conditions: post-emergence, dosage 80 g/ha
# Procedure, shortened: as §1
# [24] = test system: CYPES; assay: Pre-emergence action against CYPES; format: in vivo, Cyperus esculentus; conditions: pre-emergence, dosage 320 g/ha, scored visually after 3 weeks vs untreated controls
# Procedure, shortened: as §2
# [25] = test system: LOLMU; assay: Pre-emergence action against LOLMU; format: in vivo, Lolium multiflorum; conditions: dosage 320 g/ha, scored visually after 3 weeks vs untreated controls
# Excerpt: as §3
# [26] = test system: MATIN; assay: Post-emergence action against MATIN; format: in vivo, Matricaria inodora; conditions: post-emergence, dosage 80 g/ha, visual assessment about 3 weeks after treatment vs untreated controls
# Procedure, shortened: as §1
SMILES,Post-emergence action against PHBPU [1],Pre-emergence action against AVEFA (herbicidal activity) [2] [%],Post-emergence action against STEME [3],Pre-emergence action against ABUTH (herbicidal activity) [4] [%],Pre-emergence action against VERPE [5] [%],Post-emergence action against ABUTH (herbicidal action in percent) [6] [%],Pre-emergence action against VIOTR [9] [%],Pre-emergence action against MATIN [10] [%],Pre-emergence action against AMARE (herbicidal activity) [11] [%],Pre-emergence action against STEME [12] [%],Pre-emergence action against ECHCG (herbicidal activity) [13] [%],Post-emergence action against AMARE (herbicidal action in percent) [14] [%],"SETVI (Table B8, pre-emergence herbicidal activity) [15] [%]",Pre-emergence action against POLCO [16] [%],Pre-emergence action against ALOMY (herbicidal activity in percent) [18] [%],Post-emergence action against ECHCG (herbicidal action in percent) [19] [%],Post-emergence action against VIOTR [20],Post-emergence action against SETVI (herbicidal action in percent) [21] [%],Post-emergence action against CYPES (herbicidal action in percent) [22] [%],Post-emergence action against POLCO [23],other results
CSc1c(C(=O)Nc2nnnn2C)ccc(C(F)(F)F)c1C(=O)C1CCCC1 [1-285],80,80,80,100,90,90,100,100,100,100,80,90,,,,,,,,,Pre-emergence action against LOLRI (herbicidal activity) [7]: 80%; Pre-emergence action against DIGSA (herbicidal activity) [8]: 90%
CCn1nnnc1NC(=O)c1ccc(C(F)(F)F)c(C(C)=O)c1OC [2-48],100,,100,100,100,100,100,100,100,90,100,90,100,90,90,90,100,80,100,80,Post-emergence action against VERPE [17]: 80; Pre-emergence action against CYPES (herbicidal activity) [24]: 100%; Pre-emergence action against LOLMU (herbicidal activity) [25]: 80%; Post-emergence action against MATIN (herbicidal action in percent) [26]: 100%
CCC(=O)c1c(Cl)ccc(C(=O)Nc2nnnn2CC)c1Cl [2-115],90,90,100,100,90,90,100,100,100,100,100,90,90,80,100,90,100,90,80,100,Pre-emergence action against CYPES (herbicidal activity) [24]: 90%; Pre-emergence action against LOLMU (herbicidal activity) [25]: 100%; Post-emergence action against MATIN (herbicidal action in percent) [26]: 100%
